Laboratory results published in ChEMBL document CHEMBL1667752 (Eur J Med Chem, 2011).

Key:
Cannabinoid receptor 2 = Cannabinoid receptor 2 (Homo sapiens, UniProt P34972); assay: Displacement of [3H]CP 55940 from human CB2 receptor in cell free system
Homo sapiens = organism: Homo sapiens; assay: Selectivity ratio of Ki for human CB1 to Ki for human CB2
Cannabinoid receptor 1 = Cannabinoid receptor 1 (Homo sapiens, UniProt P21554); assay: Displacement of [3H]CP 55940 from human CB1 receptor in cell free system
Sequence of Cannabinoid receptor 1 (P21554 whole entry): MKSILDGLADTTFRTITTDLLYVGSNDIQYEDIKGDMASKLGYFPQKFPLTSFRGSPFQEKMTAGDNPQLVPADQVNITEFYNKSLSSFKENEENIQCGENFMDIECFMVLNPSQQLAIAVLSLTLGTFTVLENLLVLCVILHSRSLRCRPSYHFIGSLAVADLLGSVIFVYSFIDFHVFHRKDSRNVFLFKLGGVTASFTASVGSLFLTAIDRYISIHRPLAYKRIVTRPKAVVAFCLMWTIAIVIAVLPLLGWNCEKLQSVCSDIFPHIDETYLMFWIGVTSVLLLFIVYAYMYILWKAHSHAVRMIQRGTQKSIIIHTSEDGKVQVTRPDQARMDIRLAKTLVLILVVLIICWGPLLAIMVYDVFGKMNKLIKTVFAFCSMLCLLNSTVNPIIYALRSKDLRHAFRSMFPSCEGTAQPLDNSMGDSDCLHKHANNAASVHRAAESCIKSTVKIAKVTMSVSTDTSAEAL

Sequence of Cannabinoid receptor 2 (P34972 whole entry): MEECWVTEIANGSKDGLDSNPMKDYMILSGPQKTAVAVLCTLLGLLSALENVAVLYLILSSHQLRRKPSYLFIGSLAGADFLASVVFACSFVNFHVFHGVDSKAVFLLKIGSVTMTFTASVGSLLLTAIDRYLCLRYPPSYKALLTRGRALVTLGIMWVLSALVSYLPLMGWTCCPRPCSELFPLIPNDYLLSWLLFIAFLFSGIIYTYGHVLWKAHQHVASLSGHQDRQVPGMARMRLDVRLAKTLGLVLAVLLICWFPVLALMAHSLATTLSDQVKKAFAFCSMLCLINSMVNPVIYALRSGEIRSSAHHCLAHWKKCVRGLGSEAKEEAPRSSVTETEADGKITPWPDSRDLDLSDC

Row | Compound | log(ratioKi) (Homo sapiens) | other results
1 | CCCCCn1cc(C(=O)NC23CC4CC(CC(C4)C2)C3)c(=O)c2cc(-c3c(C)noc3C)ccc21 | – | Ki (Cannabinoid receptor 2; read-out: pKi (converted)): 102 nM
2 | CCCCCn1cc(C(=O)NC23CC4CC(CC(C4)C2)C3)c(=O)c2cc(-c3ccco3)ccc21 | 4.15 | –
3 | CC1=CC[C@@H]2[C@@H](C1)c1c(OC(=O)CCCN3CCOCC3)cc(C(C)(C)CCCCC#N)cc1OC2(C)C | 0.02 | Ki (Cannabinoid receptor 1): 8.4 nM; Ki (Cannabinoid receptor 2; read-out: Ki): 8 nM
4 | CCCCCn1cc(C(=O)NC23CC4CC(CC(C4)C2)C3)c(=O)c2cc(-c3cccs3)ccc21 | 3.68 | –
5 | Cc1nc(C(=O)NC23CC4CC(CC(C4)C2)C3)c(C)n1-c1ccccc1 | 3.2 | –
6 | Cc1ccc(NC(=O)C(C)(C(F)(F)F)C(F)(F)F)cc1S(=O)(=O)N1CCOCC1 | 1.31 | –
7 | Cc1ccc2c(c1)Cc1c(C(=O)NN3CCCCC3)nn(-c3ccc(Cl)cc3Cl)c1-2 | 3.95 | Ki (Cannabinoid receptor 1): 363 nM; Ki (Cannabinoid receptor 2; read-out: Ki): 0.04 nM
8 | CCCCCn1cc(C(=O)NC23CC4CC(CC(C4)C2)C3)c(=O)c2cc(CC)ccc21 | 1.74 | –
9 | CC1=CC[C@@H]2[C@@H](C1)c1c(O)cc(C3(C4CCCCC4)SCCS3)cc1OC2(C)C | 0.24 | –
10 | CCCCCCC1CCCc2c1cc1c(c2O)[C@@H]2CC(C)=CC[C@H]2C(C)(C)O1 (stereo partly specified) | 0.6 | Ki (Cannabinoid receptor 1): 22.3 nM; Ki (Cannabinoid receptor 2; read-out: Ki): 5.4 nM
11 | CCCCc1c(C(=O)NC23CC4CC(CC(C4)C2)C3)nc(C)n1-c1ccccc1 | 2.3 | –
12 | CCCCCn1c(C)c(C(=O)c2ccc(CCCC)c3ccc(C)cc23)c2ccccc21 | 0.81 | Ki (Cannabinoid receptor 1): 42 nM; Ki (Cannabinoid receptor 2; read-out: Ki): 6.5 nM
13 | CCCC(C)(C)c1ccc2c(c1)OC(C)(C)[C@@H]1CC=C(C)C[C@@H]21 | 2.3 | –
14 | CCCCCn1cc(C(=O)NC2C(C)(C)[C@@H]3CC[C@@]2(C)C3)c(=O)c2cc(-c3ccco3)ccc21 (stereo partly specified) | 2.3 | Ki (Cannabinoid receptor 1): 480 nM; Ki (Cannabinoid receptor 2; read-out: Ki): 2.4 nM
15 | CC1=CC[C@@H]2[C@@H](C1)c1c(O)cc(C3(C#N)CCCCC3)cc1OC2(C)C | 0.34 | –
16 | COCCn1c(C)c(C(C)(C)C)s/c1=N\C(=O)c1ccc(C(F)(F)F)cc1 | 2.6 | Ki (Cannabinoid receptor 1): 4100 nM; Ki (Cannabinoid receptor 2; read-out: Ki): 10 nM
17 | COc1ccc(OC)c2c(=O)c(C(=O)NC34CC5CC(CC(C5)C3)C4)c[nH]c12 | 1.6 | Ki (Cannabinoid receptor 1): 2100 nM; Ki (Cannabinoid receptor 2; read-out: Ki): 52.6 nM
18 | CCCCCn1cc(C(=O)NC23CC4CC(CC(C4)C2)C3)c(=O)c2cc(C(F)(F)F)ccc21 | 2.34 | –
19 | CC1(C)C(C(=O)c2cn(C[C@@H]3CCCO3)c3ccccc23)C1(C)C | 1.82 | –
20 | COCc1ccc2c(c1)c(C(=O)C1C(C)(C)C1(C)C)cn2CC1CCOCC1 | – | Ki (Cannabinoid receptor 2; read-out: Ki): 25 nM
21 | Cc1c(C(C)(C)C)s/c(=N\S(=O)(=O)c2cccc3ccccc23)n1C1CC1 | 2.02 | Ki (Cannabinoid receptor 1): 1700 nM; Ki (Cannabinoid receptor 2; read-out: Ki): 16 nM
22 | CCCCCn1cc(C(=O)NC23CC4CC(CC(C4)C2)C3)c(=O)c2cc(CCc3ccccc3)ccc21 | 2.27 | –
23 | Cc1c(Cl)ccc2c(=O)c(C(=O)NC34CC5CC(CC(C5)C3)C4)c[nH]c12 | 2.59 | Ki (Cannabinoid receptor 1): > 10000 nM; Ki (Cannabinoid receptor 2; read-out: Ki): 25.5 nM
24 | Cc1c(C(=O)NC2CCCCC2)nn(-c2ccc(Cl)c(Cl)c2)c1-n1cccc1 | 0.52 | –
25 | CCCCCn1cc(C(=O)NC23CC4CC(CC(C4)C2)C3)c(=O)c2cc(-c3cc(C)c(OC)c(C)c3)ccc21 | 1.38 | –

Row | Compound | log(ratioKi) (Homo sapiens) | other results
26 | CCCCCn1cc(C(=O)NC23CC4CC(CC(C4)C2)C3)c(=O)c2cc(-c3ccc(Cl)s3)ccc21 | 2.35 | –
27 | CC1(C)C(C(=O)c2cn(CCN3CCOCC3)c3cccc(N)c23)C1(C)C | 2.05 | Ki (Cannabinoid receptor 1): 3500 nM
28 | Cc1nc(C(=O)NC23CC4CC(CC2C4)C3)c(C)n1-c1ccccc1 | 2.74 | Ki (Cannabinoid receptor 1): 5440 nM; Ki (Cannabinoid receptor 2; read-out: Ki): 9.7 nM
29 | Cc1ccc2c(=O)c(C(=O)NC3CCCC3)cn(CCN3CCOCC3)c2n1 | 1.3 | Ki (Cannabinoid receptor 1): 1000 nM; Ki (Cannabinoid receptor 2; read-out: Ki): 50 nM
30 | CCCCCn1cc(C(=O)NC23CC4CC(CC(C4)C2)C3)c(=O)c2cc(-c3ccc(O)cc3)ccc21 | 3.38 | –
31 | CC1(Cc2ccccc2)COc2cc(C(=O)N3CCCCC3)ccc21 (stereo unspecified) | 1.37 | Ki (Cannabinoid receptor 1): > 10000 nM
32 | COc1ccc2c(c1)c(C(=O)C1C(C)(C)C1(C)C)cn2CC1CCOCC1 | 2 | –
33 | CC1(C)C(C(=O)c2cn(CC3CCOCC3)c3ccc(OCc4ccccc4)cc23)C1(C)C | 2.3 | Ki (Cannabinoid receptor 1): 234 nM
34 | CCCCCn1cc(C(=O)NC2C3CC4CC(C3)CC2C4)c(=O)c2ccccc21 (stereo unspecified) | 2.16 | –
35 | COc1cccc2c(C(=O)C3C(C)(C)C3(C)C)cn(CC3CCOCC3)c12 | – | Ki (Cannabinoid receptor 2; read-out: Ki): 0.1 nM
36 | CCCCCn1cc(C(=O)NC23CC4CC(CC(C4)C2)C3)c(=O)c2cc(-c3ccc(F)cc3F)ccc21 | 2.79 | –
37 | CCCCCOc1c(OC)ccc2cc(C(=O)NCc3ccc4c(c3)OCO4)c(=O)[nH]c12 | – | Ki (Cannabinoid receptor 1): 2370 nM
38 | CCCCCCNC(=O)c1cn(CCCCC)c2ccc(Br)cc2c1=O | – | Ki (Cannabinoid receptor 2; read-out: pKi (converted)): 891 nM
39 | CCCCC/C=C\C/C=C\C/C=C\C/C=C\CCCC(=O)N[C@H]1C[C@@H]1O | – | Ki (Cannabinoid receptor 2; read-out: pKi (converted)): 191 nM
40 | CCCCCn1cc(C(=O)NC23CC4CC(CC(C4)C2)C3)c(=O)c2cc(Br)ccc21 | 1.82 | –
41 | O=S(=O)(CCCC(F)(F)F)Oc1cccc(Oc2cccc3c2C[C@H](CO)C3)c1 | – | Ki (Cannabinoid receptor 2; read-out: pKi (converted)): 4.27 nM
42 | CCCCCn1cc(C(=O)NC23CC4CC(CC(C4)C2)C3)c(=O)c2cc(-n3ccnc3)ccc21 | 3.1 | –
43 | CCCCCn1cc(C(=O)NC23CC4CC(CC(C4)C2)C3)c(=O)c2cc(C3CCCCC3)ccc21 | 3.14 | –
44 | COc1ccc2c(c1)c(CCN1CCOCC1)c(C)n2C(=O)c1cccc(Cl)c1Cl | 2.21 | –
45 | Cc1ccc(-c2nc(CC3CCCCC3)cs2)cc1S(=O)(=O)N1CCOCC1 | 1.22 | –
46 | Cc1ccc2c(C(=O)C3C(C)(C)C3(C)C)cn(CC3CCOCC3)c2c1 | – | Ki (Cannabinoid receptor 2; read-out: Ki): 0.2 nM
47 | CC1(C)C(C(=O)c2cn(CC3CCOCC3)c3cc(-c4ccccc4)ccc23)C1(C)C | 2.27 | Ki (Cannabinoid receptor 2; read-out: Ki): 0.4 nM
48 | CCCCCn1cc(C(=O)NC23CC4CC(CC(C4)C2)C3)c(=O)c2cc(I)ccc21 | 2.01 | –
49 | CCCCCn1cc(C(=O)NC23CC4CC(CC(C4)C2)C3)c(=O)c2cc(-c3ccc(C#N)cc3)ccc21 | 2.38 | –
50 | CCCCCn1cc(C(=O)NC23CC4CC(CC(C4)C2)C3)c(=O)c2cc(C3=CCCCC3)ccc21 | 3.08 | –

Row | Compound | log(ratioKi) (Homo sapiens) | other results
51 | CCCCCn1cc(C(=O)NC23CC4CC(CC(C4)C2)C3)c(=O)c2cc(-c3ccccc3)ccc21 | 3.42 | –
52 | CC1=CC[C@@H]2[C@@H](C1)c1c(O)cc(-c3cccc4ccccc34)cc1OC2(C)C | 0.09 | –
53 | O=C(c1cn(CC2CCOCC2)c2ccccc12)C1CCCC1 | 1.07 | –
54 | C#CCn1cc(C(=O)NC23CC4CC(CC(C4)C2)C3)c(=O)c2cc(Br)ccc21 | 1.81 | –
55 | Cc1ccc(NC(=O)C2CCCCC2(C)C)cc1S(=O)(=O)N1CCOCC1 (stereo unspecified) | 1.85 | –
56 | N#Cc1c(Oc2cccc(OS(=O)(=O)CCCC(F)(F)F)c2)cccc1C(F)(F)F | 0.03 | Ki (Cannabinoid receptor 1): 48.3 nM
57 | Cc1ccc(NC(=O)C2C(C)(C)C2(C)C)cc1S(=O)(=O)N1CCOCC1 | 2.16 | –
58 | C#Cc1ccc2c(c1)c(=O)c(C(=O)NC13CC4CC(CC(C4)C1)C3)cn2CCCCC | 3.05 | –
59 | COCCn1cc(C(=O)C2C(C)(C)C2(C)C)c2ccccc21 | 2.35 | –
60 | CCCCCn1cc(C(=O)NC23CC4CC(CC(C4)C2)C3)c(=O)c2cc(Sc3ccccc3)ccc21 | 2.28 | –
61 | CCCCCn1cc(C(=O)NC23CC4CC(CC(C4)C2)C3)c(=O)c2ccccc21 | 0.95 | –
62 | Cc1ccc(C(=O)NC(C(C)(C)C)C(C)(C)C)cc1S(=O)(=O)N1CCOCC1 | 0.95 | –
63 | COCCn1c(C)c(C)s/c1=N\C(=O)C1C(C)(C)C1(C)C | 2.62 | Ki (Cannabinoid receptor 2; read-out: Ki): 0.64 nM
64 | Cc1ccc(-c2nc(CC(C)(C)C)cs2)cc1S(=O)(=O)N1CCOCC1 | 1.58 | –
65 | COc1ccc(-c2oc3cc(OC)ccc3c2C(=O)c2ccc(C#N)cc2)cc1 | – | Ki (Cannabinoid receptor 2; read-out: pKi (converted)): 14800 nM
66 | CCC(C)(C)C(=O)Nc1cc(CN2CCOCC2)c(C)cn1 | 2.19 | –
67 | C=CCCn1cc(C(=O)NC23CC4CC(CC(C4)C2)C3)c(=O)c2cc(-c3ccco3)ccc21 | 3.35 | –
68 | CCc1nc(C(=O)NC23CC4CC(CC(C4)C2)C3)c(C)n1-c1ccccc1 | 3.41 | –
69 | CC1=CC[C@@H]2[C@@H](C1)c1c(O)cc(C(C)(C)C3CCCCCC3)cc1OC2(C)C | 0.63 | –
70 | CCCCCn1c(C)c(C(=O)c2cccc3ccccc23)c2ccccc21 | 0.28 | –
71 | CN1CCCCC1Cn1cc(C(=O)c2cc([N+](=O)[O-])ccc2I)c2ccccc21 (stereo unspecified) | 2.64 | –
72 | Cc1c(C(=O)NC2CCCCC2)nn(-c2ccc(Cl)c(Cl)c2)c1-n1c(C)ccc1C | 1.05 | –
73 | CCCCCn1cc(C(=O)NC23CC4CC(CC(C4)C2)C3)c(=O)c2cc(-c3ccc(Cl)cc3)ccc21 | 3 | –
